Experimental data taken from PMC2410110, “Differential effects of ketoconazole on exposure to temsirolimus following intravenous infusion of temsirolimus” (British Journal of Cancer, 2008).
“And” between values parts separate entries of the source, which are not always exact repeats. Equal entries are not always repeated. “Also recorded” adds a separate entry of the source. Where two headings read alike, the source gives them in different places. Blank lines part the entries; values can stand above or below the molecule they belong to.

Legend:
CYP3A4 [1] = system: CYP3A4; set-up: method as in Cai et al, 2007; conditions: in vitro liver microsome systems, ref Cai et al, 2007, cited from earlier work
CYP3A4 [2] = conditions: read-out: Ki for inhibition of the metabolism of sirolimus; reference not given; cited from earlier work
[3] = set-up: method as in Boni et al, 2007; conditions: healthy adults; with rifampin; ref Boni et al, 2007; cited from earlier work
[4] = set-up: method as in Atkins et al, 2004; conditions: ref Atkins et al, 2004, cited from earlier work
[5] = set-up: method as in Zimmerman, 2004; conditions: oral sirolimus; ref Zimmerman, 2004; cited from earlier work
[6] = Drug interaction study: whole blood pharmacokinetics of temsirolimus and sirolimus after single 5-mg i.v. temsirolimus alone or with oral ketoconazole; type: in vivo, human; conditions: for Intersubject variability, CV for Cmax and AUC: both treatment periods; for Cmax / AUC / AUC(0-t) / Vd / half-life / Tmax / clearance: human; for Cmax / AUC / AUC(0-t) / Vd / half-life / Tmax / T1/2 / clearance / CL / Vss: whole blood
Procedure: (§1) In this open-label, non-randomised, single-centre, two-period, sequential study, subjects received temsirolimus (Torisel™; Wyeth Pharmaceuticals, Philadelphia, PA, USA) alone, followed by temsirolimus in combination with ketoconazole after a 14-day washout period. On study day 1 of the first period, subjects received 25 mg i.v. diphenhydramine, followed 30 min later by 5 mg i.v. temsirolimus over 30 min. Subjects remained in the clinical unit until the 72-h blood collection (study day 4) and returned for subsequent blood draws at designated time points over the next 4 days (study days 5–8). Study days 9 through 13 were part of the washout period. During the second period, subjects returned to the clinical unit on study day 14. On study day 15, they received 400 mg oral ketoconazole, followed 90 min later by a 25-mg i.v. dose of diphenhydramine. Thirty minutes later, subjects were administered a 30-min i.v. infusion of 5 mg temsirolimus. Subjects remained in the clinical unit until the 72-h blood draw (study day 18) and returned for all subsequent blood draws. They continued to take 400 mg ketoconazole orally each day through study day 21. Subjects fasted for 10 h before receiving temsirolimus and for 4 h afterward.
Blood samples were collected predose, immediately before the end of the infusion (0.5 h), and at 1, 3, 8, 24, 48, 72, 96, 120, 144, and 168 h after administration of temsirolimus on study days 1 and 15. Samples were collected in evacuated tubes containing ethylenediaminetetraacetic acid (EDTA) and gently mixed, then stored upright at −70°C until shipment.
Analytes and internal standard were extracted from a 1-ml sample of EDTA-treated whole blood by liquid–liquid extraction with 1-chlorobutane and separated with a YMC PDS AQ HPLC column (Waters, Milford, MA, USA). Analytes were detected by tandem mass spectrometry using atmospheric pressure chemical ionisation. The concentration of analytes was determined with calibration standards using linear least squares regression.
Pharmacokinetic parameters for temsirolimus were analysed for each subject for each study period using non-compartmental methods ([Jusko, 1992]). Scheduled times were used for all calculations. The Cmax and the time to reach Cmax (Tmax) were determined visually from the concentration–time curves. The terminal elimination rate constant, λz, was estimated by log-linear regression of the terminal portion of the whole blood concentration–time curves. The terminal elimination half-life (T1/2) was calculated as 0.693/λz. The area under the concentration–time curve (AUCT) was calculated using the trapezoidal rule for the ascending portion of the curve, and the log-trapezoidal rule for the descending portion of the curve. […] Clearance (CL) is the volume of plasma cleared of the drug per unit time (dose/AUC). Apparent clearance was corrected for the fraction of the dose that was metabolised (CL/fm). The apparent volume of distribution during the terminal phase (Vz) was calculated by (CL/fm)/λz. The calculation of the steady-state volume of distribution (Vdss) incorporated dissociation and association rates of protein and tissue binding. Vdss was defined as (dose/AUC)MRTu, where MRTu is the mean residence time of the unbound drug in the plasma ([Berezhkovskiy, 2004]).
(§2) The geometric mean relative bioavailability of Cmax, AUC, and AUCT and the 90% confidence limits were calculated using ANOVA to determine the magnitude of the effect of ketoconazole. Vital signs, ECG intervals, and laboratory parameters were screened for prespecified, potentially clinically important criteria.

[7] = set-up: method as in Punt et al, 2003; conditions: stored at −70°C; ref Punt et al, 2003; cited from earlier work
[8] = set-up: method as in Boni et al, 2007; conditions: cancer patients; ref Boni et al, 2007; cited from earlier work
[9] = Safety: treatment-emergent adverse events in healthy subjects receiving temsirolimus alone or with ketoconazole; type: in vivo, human
Procedure: as §1, §2

[10] = 5 mg i.v. temsirolimus + 400 mg oral ketoconazole vs temsirolimus alone
[11] = 5 mg i.v. temsirolimus + ketoconazole vs temsirolimus alone
[12] = intravenous, single 5 mg i.v. temsirolimus + ketoconazole 400 mg oral, healthy subjects, mean (CV)
[13] = intravenous, single 5 mg i.v. temsirolimus + ketoconazole 400 mg oral, mean (CV)
[14] = iv, single 5 mg i.v. temsirolimus alone, healthy subjects, mean (CV)
[15] = iv, single 5 mg i.v. temsirolimus alone, mean (CV)
[16] = iv, 5 mg, 5 mg i.v. temsirolimus, irrespective of treatment (with or without ketoconazole), read-out: Time to maximal concentration
[17] = iv, 5 mg, single 5 mg i.v. temsirolimus alone, mean (CV)
[18] = iv, 5 mg, single 5 mg i.v. temsirolimus alone, mean (CV), read-out: Tmax
[19] = single 5 mg i.v. temsirolimus + ketoconazole 400 mg oral, mean (CV)
[20] = single 5 mg i.v. temsirolimus alone, mean (CV)
[21] = single 25-mg dose of temsirolimus, patients with RCC, CV=17%
[22] = with ketoconazole relative to single 5-mg i.v. temsirolimus alone, 90% CI in brackets

Increase in mean AUC with ketoconazole compared with temsirolimus alone [6, 10]: 3.1 fold and 3.2 fold
Increase in mean Cmax with ketoconazole compared with temsirolimus alone [6, 10]: 2.2 fold
Decrease in mean apparent metabolic clearance (CL/fm) with ketoconazole [6, 11]: 3.2 fold
Intersubject variability, CV for Cmax and AUC [6]: < 33%
Cmax [6, 12]: 29 ng/mL
AUC [6, 13]: 3890 ng·h/mL
AUC(0-t) [6, 13]: 2410 ng·h/mL
Cmax [6, 14]: 13.3 ng/mL
AUC [6, 15]: 1200 ng·h/mL
AUC(0-t) [6, 15]: 918 ng·h/mL
Vd ([6]; intravenous, metabolite sirolimus, single 5 mg i.v. temsirolimus + ketoconazole 400 mg oral, mean (CV), read-out: Vss/fm): 227 L
Vd ([6]; intravenous, metabolite sirolimus, single 5 mg i.v. temsirolimus + ketoconazole 400 mg oral, mean (CV), read-out: Vz/fm): 220 L
half-life [6, 13]: 113 h
Tmax [6, 16]: 3 h
Vd ([6]; iv, 5 mg, metabolite sirolimus, single 5 mg i.v. temsirolimus alone, mean (CV), read-out: Vss/fm): 494 L
Vd ([6]; iv, 5 mg, metabolite sirolimus, single 5 mg i.v. temsirolimus alone, mean (CV), read-out: Vz/fm): 480 L
half-life [6, 17]: 75 h
Tmax [6, 18]: 3.3 h
Reduction in apparent clearance with ketoconazole ([6]; metabolite sirolimus, 5 mg i.v. temsirolimus + ketoconazole vs temsirolimus alone): 69%
Carryover from treatment period 1 to 2, contribution to mean total AUC ([6]; period 2, mean): 1.9%
Carryover from treatment period 1 to 2, contribution to total AUC, range ([6]; period 2, range): 1.1–3.7%
T1/2 [6, 19]: 112.8 (18.1%) h
T1/2 [6, 20]: 74.8 (10.8%) h
Compound: CO[C@H]1C[C@@H]2CC[C@@H](C)[C@@](O)(O2)C(=O)C(=O)N2CCCC[C@H]2C(=O)O[C@H]([C@H](C)C[C@@H]2CC[C@@H](O)[C@H](OC)C2)CC(=O)[C@H](C)/C=C(\C)[C@@H](O)[C@@H](OC)C(=O)[C@H](C)C[C@H](C)/C=C/C=C/C=C/1C [Sirolimus]
Reduction of AUC by rifampin [3]: 56%
Cmax as % of temsirolimus Cmax values ([4]; after temsirolimus): 10–20%
Increase in blood levels with ketoconazole [5]: ~10 fold
Stability in whole blood [7]: stable
Reduction in AUC with concomitant enzyme-inducing anticonvulsant agents [8]: 45%
Reduction in Cmax with concomitant enzyme-inducing anticonvulsant agents [8]: 67%

Compound: CO[C@H]1C[C@@H]2CC[C@@H](C)[C@@](O)(O2)C(=O)C(=O)N2CCCC[C@H]2C(=O)O[C@H]([C@H](C)C[C@@H]2CC[C@@H](OC(=O)C(C)(CO)CO)[C@H](OC)C2)CC(=O)[C@H](C)/C=C(\C)[C@@H](O)[C@@H](OC)C(=O)[C@H](C)C[C@H](C)/C=C/C=C/C=C/1C [Temsirolimus]
Effect of rifampin on AUC [3]: no effect
Mean area under the curve (AUC) [4, 21]: 1580 ng·h/mL
Mean maximum concentration (Cmax) in whole blood [4, 21]: 595 ng/mL
Decrease in mean clearance with ketoconazole [6, 11]: approximately 10%
Effect of ketoconazole coadministration on Cmax or AUC ([6]; 400 mg oral ketoconazole with 5 mg i.v. temsirolimus, healthy subjects): no significant effect; also recorded: No substantial differences
Intersubject variability, CV for Cmax and AUC [6]: < 16%
Cmax [6, 12]: 263 ng/mL
AUC [6, 13]: 992 ng·h/mL
AUC(0-t) [6, 13]: 969 ng·h/mL
Cmax [6, 14]: 278 ng/mL
AUC [6, 15]: 886 ng·h/mL
AUC(0-t) [6, 15]: 873 ng·h/mL
clearance [6, 13]: 85.7 mL/min
half-life [6, 13]: 23.7 h
Tmax ([6]; intravenous, single 5 mg i.v. temsirolimus + ketoconazole 400 mg oral, mean (CV), read-out: Tmax): 0.5 h
Vd ([6]; intravenous, single 5 mg i.v. temsirolimus + ketoconazole 400 mg oral, mean (CV), read-out: Vss): 92 L
Vd ([6]; intravenous, single 5 mg i.v. temsirolimus + ketoconazole 400 mg oral, mean (CV), read-out: Vz): 174 L
Tmax [6, 16]: 0.5 h
clearance [6, 17]: 95.3 mL/min
half-life [6, 17]: 22.3 h
Tmax [6, 18]: 0.5 h
Vd ([6]; iv, 5 mg, single 5 mg i.v. temsirolimus alone, mean (CV), read-out: Vss): 87 L
Vd ([6]; iv, 5 mg, single 5 mg i.v. temsirolimus alone, mean (CV), read-out: Vz): 182 L
CL [6, 19]: 5.1 (13.8%) l h^−1
Vss [6, 19]: 91.5 (17.5%) l
CL [6, 20]: 5.7 (11.0%) l h^−1
Vss [6, 20]: 86.8 (14.6%) l
Least squares geometric mean ratio for AUC [6, 22]: 110%
Least squares geometric mean ratio for AUCT [6, 22]: 109%
Least squares geometric mean ratio for Cmax [6, 22]: 94%
90% CIs for the least squares geometric mean ratios of Cmax, AUCT, and AUC ([6]; with ketoconazole vs temsirolimus alone): 80–125%
Stability in whole blood [7]: stable
Tolerability ([9]; human, in vivo): well tolerated
Herpes simplex (skin and appendages) ([9]; temsirolimus 5 mg + ketoconazole 400 mg, n=14): 0 n (%)
Herpes simplex (skin and appendages) ([9]; temsirolimus 5 mg alone, n=17): 1 (5.9) n (%)
Deaths or serious adverse events ([9]; temsirolimus alone and with ketoconazole): No deaths or serious adverse events
Reduction in Cmax with concomitant enzyme-inducing anticonvulsant agents [8]: 36%
